# Assay results reported in a melting point compilation (Tetko et al.; mined from patent text by program, amines drawn as free bases though some values may be those of a salt).
row,Structure (SMILES),melting point [°C]
1,COc1cc(Oc2cccc(OC(F)(F)F)c2)nc(C(=O)Nc2ccccc2)c1,95 to 98
2,O=c1nc(-c2ccccc2)c2cc([N+](=O)[O-])ccc2n1CC(F)(F)F,195 to 196
3,COCOCc1oc2c(OC)cccc2c1CCSC(c1ccccc1)c1ccccc1,110
4,CC#CC(C)(C)NC(=O)C(COC)Oc1cc(Cl)cc(Cl)c1 (stereo not given),107 to 110
5,COc1ccc(C(=O)NCCCN(CCCNC(=O)c2ccc(OC)cc2)C(=O)c2ccc(OC)cc2)cc1,117 to 119
6,CC(C)C(NC(=O)Cn1cc(Cc2ccccc2)cc(NC(=O)OCc2ccccc2)c1=O)C(=O)C(F)(F)F (stereo not given),58 to 64
7,O=C(O)Cc1ccccc1SCc1cc(F)ccc1F,106 to 108
8,CC(C)(SCC(=O)O)c1ccc2c(c1)OCO2,78.5 to 80
9,CCCCNC(=O)Nc1ccc(N2CCCC2)cc1C(=O)NCC1CCN(C(c2ccccc2)c2ccccc2)CC1,200 to 202
10,CCOC(=O)c1c(C)nn(-c2ccccn2)c1N,80 to 81
11,CN(c1ccc(Cl)c2cc(-c3ncc(CO)s3)[nH]c12)S(=O)(=O)c1cccs1,225 to 226
12,NCC(O)C1COc2ccccc2O1 (stereo not given),86 to 88
13,NS(=O)(=O)NCc1csc2ccccc12,101
14,CN(C)S(=O)(=O)c1ccc2c(c1)C(=O)c1cc(Br)ccc1CC2,142 to 145
15,Nc1nc(/C(=N/OCC(=O)N2CCCCCC2)C(=O)O)cs1,178 to 179
16,CCCCC1NCCc2ccc(C(=O)N[C@@H](Cc3cc(F)cc(F)c3)[C@H](O)CNCc3cccc(CC)c3)cc21 (stereo not given in full),121 to 124
17,CCCCC(=O)Nc1ccccc1C(N)=O,119 to 120
18,CCCCc1oc2ccccc2c1C(=O)NCc1ccc2c(-c3ccc(Cl)cc3)c(O)ccc2c1,122 to 124
19,CCN1C(=O)CCC(C)(C)c2cc(Nc3ncc(Cl)c(Nc4ccc(N5CCOCC5)cc4OC)n3)ccc21,255
20,CCOC(=O)C(NC(=O)c1cnc2cccc(C)n2c1=O)C(C)C (stereo not given),136
21,N#Cc1cccc(C=CCN2CCc3nc(N)sc3CC2)c1,136 to 140
22,O=Cc1ccc2cc(C=O)ccc2c1,173 to 174
23,Cn1ccnc1-c1ccccc1Nc1nc(Nc2ccc3c(c2)CCC(=O)CC3)ncc1Cl,149
24,COCC1CN(c2ccc(C3CCN(C(=O)C=Cc4ccccc4)CC3)cc2)C(=O)O1 (racemic),136 to 138
25,O=[N+]([O-])c1cccc(-c2nc(Nc3ccccc3)cc3cccnc23)c1,158 to 160

row,Structure (SMILES),melting point [°C]
1,Cc1ccccc1C(=O)NC(n1cncn1)C(Cl)(Cl)CCl (stereo not given),133 to 137
2,O=C(C1NCCc2sccc21)N1CCCC1 (stereo not given),114 to 116
3,Cc1cc(C)c2c(c1C)OC(=O)C2c1ccc(Br)cc1 (stereo not given),168 to 169
4,COc1cc(COc2nn(-c3ccccc3)cc2C(=O)O)ccc1OCc1nc(-c2ccco2)oc1C,184 to 185
5,CCOC(=O)C1(CBr)C=CC=CC1S(=O)(=O)NC(C)(C)C (stereo not given),74 to 75
6,FC(F)(F)COc1cccc(-c2ccc3nnn(Cc4ccc5ncccc5c4)c3n2)c1,151 to 154
7,Cn1c(CNCC(C)(C)S(C)(=O)=O)cc2cc(NC(=O)c3ccc(OCC4CC4)cc3)ccc21,168 to 169
8,O=C(Nc1cnc(-c2ccccc2)nc1C(=O)O)OCc1cc2cc(-c3ccccc3)ccc2o1,184 to 185
9,Cc1nc(COc2ccc(C[C@@H](C)[C@@H](C)Cc3ccc(OCc4csc(C)n4)c(OCc4csc(C)n4)c3)cc2OCc2csc(C)n2)cs1,85 to 87
10,Cc1cc(CNC(=O)c2nc3n(c(=O)c2OCc2ccccc2)CCN3c2ccccc2)ccc1F,147
11,CC(=O)Oc1ccc(-c2c(C)c3ccc(F)cc3oc2=O)c(OC(C)=O)c1,148 to 149
12,CCC(=O)Nc1cc(-c2c(-c3cccc(C)c3)nc3cccnn23)ccn1,138 to 139
13,O=C(O)CCC(CCCCNS(=O)(=O)c1ccc(Cl)cc1)CCOc1cccnc1 (stereo not given),86 to 88
14,CCn1c(=O)c2c(nc(C=Cc3cccc(OC)c3O)n2C)n(CC)c1=O,225 to 226
15,CC(C)C1(C(C)C)C(=O)N=C2c3ccccc3C(=O)N21,146 to 148
16,CCOC(=O)N1CCN(c2cn(Cc3ccccc3)c3cc(OC)ccc3c2=O)CC1,173 to 174
17,COc1cc2c(cc1OC)C(O)=C(c1cc(OCc3ccccc3)ccc1[N+](=O)[O-])C2=O,120
18,OCC1(Oc2ccc3c(c2)c(-c2cc4cccnc4[nH]2)cn3C2(CO)CCC2)CCC1,165 to 166
19,COc1cc2c(cn1)OCC21C(=O)N(CC2CCCO2)c2ccccc21 (stereo not given),> 250
20,Cc1cc(Br)nc(Br)c1,77
21,O=C(CN1CCCCC1)Nc1ccc(NC(=O)Nc2ccc(N(CCCl)CCCl)cc2)cc1,227 to 229
22,O=c1[nH]nc(-c2ccc3ccccc3c2)o1,197 to 199
23,OCCNc1cc(Nc2ccc(Cl)cc2)ncn1,183
24,O=C(Cl)c1c(Cl)nc2ccc(Br)cc2c1-c1ccccc1,166 to 170
25,CC1(C)COC(Cc2ccc3c(c2)C(=O)c2ccccc2CO3)=N1,101 to 104

row,Structure (SMILES),melting point [°C]
1,CCOC(=O)Cn1c(=O)[nH]c(=O)c2ccccc21,249 to 250
2,COC(=O)c1cc(=NS(=O)(=O)c2ccccc2)c2ccccc2o1,144 to 146
3,CN(C(=O)COc1ccccc1)c1ccc(OC23CC4CC(CC(C4)C2)C3)cc1,89 to 91
4,NCCCCC1Cc2ccc(C3=NNC(=O)CC3)cc2C1 (stereo not given),153 to 155
5,CCCC(=O)c1ccc(OCCCC(=O)O)c(Cl)c1Cl,111 to 113
6,Cc1nccnc1C(=O)Nc1ccccc1-c1ccc(OC(F)(F)F)cc1,120 to 121
7,O=C(O)c1cnn(-c2ccc(Cl)cc2)c1C1CC1,186 to 187
8,CS(=O)(=O)C(=C1CN(C(c2ccccc2)c2ccccc2)C1)c1ccccc1F,188
9,CCOC(=O)Nc1ccc(-c2cccs2)s1,76
10,Cc1c(C)c2c(c(C)c1N)OC(C)(C)C2Cc1ccccc1 (stereo not given),75 to 76
11,CCNC(=O)C1CCN(Cc2cnc3cc(NC(=O)c4ccc(-c5ccc(F)cc5)cc4)c(C)cc3c2)CC1,254
12,C#CCC(O)(Cn1cncn1)c1ccc(Oc2ccc(Cl)cc2)cc1Cl (stereo not given),124
13,Cc1oc(-c2ccccc2)nc1COc1ccc(COc2ccc(O)cc2CC#N)cc1,185 to 186
14,COc1cc2cnc(C(=O)O)cc2cc1OC,228
15,COCC1CN(c2ccc3cc(OCc4ccccc4)ccc3c2)C(=O)O1 (stereo not given),150
16,Cc1ccc(-c2ccc(C(=O)CCC(=O)O)cc2)cc1,183 to 186
17,Cc1ncc(COC(=O)c2ccncc2)cc1O,180
18,CS(=O)(=O)CCC(C#N)CC#N (stereo not given),123 to 125
19,Oc1ccc(-c2nn(C3CCCCC3)c3c(Cl)cccc23)cc1,176 to 177
20,CCOC(OCC)c1nc(C2CC2)nc(N)c1Cl,104 to 110
21,O=[N+]([O-])N=c1ccccn1Cc1ccc(Cl)nc1,209 to 212
22,Cc1cc(C)n2nc(S(=O)(=O)N(C)c3c(Cl)cccc3Cl)nc2n1,220 to 222
23,COc1cc2c(cc1C(F)(F)F)N(C(=O)Nc1ccc3c(ccn3Cc3ccncc3)c1)CC2,215 to 218
24,CCCc1nn(C)c2c(=O)[nH]c(-c3sc(S(=O)(=O)N4CCN(C)CC4)cc3OCC)nc12,219 to 220
25,COC(=O)C(C(=O)OC)C(Cc1c(N)cccc1C(F)(F)F)c1ccc(OC)cc1 (stereo not given),111 to 113

row,Structure (SMILES),melting point [°C]
1,Nc1sc(-c2ccc(Cl)cc2)c(CN(C2CCCCC2)C2CCCCC2)c1C(=O)c1ccc(Cl)cc1,200 to 204
2,COc1ccc(NC(C)=O)c(OC)c1-c1ccc(C[C@H](NC(=O)c2c(Cl)cccc2Cl)C(=O)O)cc1,244 to 245
3,O=C(O)C(c1ccccc1)n1nnc(C(c2ccccc2)c2ccccc2)n1 (stereo not given),158 to 161
4,CN(C(=O)CCCOc1ccc2c(c1)CN(CC(=O)O)C(N)=N2)C1CCCCC1,125 to 128
5,CCOC(=O)CC1C(=O)N(CC(C)(C)C)c2ccc(Cl)cc2N(c2ccccc2Cl)C1=O (stereo not given),152 to 153
6,CCOC(=O)c1ncc(-c2ccc(Br)cc2)o1,120 to 122
7,CCc1nnc(-c2ccc(OC)cc2)n1-c1ccccc1,118
8,COC(=O)c1ccc(OCCCCCOc2ccc(C(=O)OC)cc2)cc1,93 to 95
9,COC(CO)(OC)C1(c2ccc(Cl)cc2)CCC1,73 to 74
10,C#Cc1cccc(Nc2ncnc3c2ccn3CCOC)c1,240 to 241
11,CCC(CC)(CO)CCCS(=O)(=O)N=CN(C)C,87 to 88
12,CN1N=C(c2ccc(F)cc2)c2cc(F)ccc2CS1(=O)=O,169 to 171
13,CCCCn1c(=O)[nH]c2cccc(OCC3CO3)c21 (stereo not given),226 to 227
14,COC(=O)Cn1c(C(=O)NC(N)=S)cc2cc(C)ccc21,222 to 224
15,O=C(O)CCC(=O)Nc1cccc2ccccc12,167 to 169
16,COC(=O)c1ccc(Cc2cn(C)c3ccc(NC(=O)OC4CCCC4)cc23)c(OC)c1,134 to 135
17,Cc1ccc2nc(N3CC[C@@H](O)C3)ccc2c1NC(=O)CC1CCCCC1,248 to 249
18,CC(C)=NOCc1nc2c(N)nc3c(c2n1CC(C)C)CCCC3,176 to 177
19,CCCNC(=O)C1c2ccccc2-c2ccccc21,197 to 199
20,CN(C)c1cccc2c1OC1(CC1)C2=O,68.3
21,CCN1C(c2ccccc2C(=O)c2ccccc2)=N[C@@H]2CCCC[C@H]21 (relative stereo),80 to 83
22,CC1(C)CC(=O)C2=C(C1)NC1=C(C(=O)CC(C)(C)C1)C2c1ccc(Cl)cc1Cl,> 300
23,CC(C)NCC(O)COc1ccc2c(c1)OC(C)CC2 (stereo not given),79 to 81
24,O=C(O)C1CSCCC12OCCO2 (stereo not given),99 to 101
25,Cc1cc(Cl)nc(C=Cc2ccccc2)n1,71 to 73
